Experimental data as given in patent US10844038B2, “1,2-dithiolane compounds useful in neuroprotection, autoimmune and cancer diseases and conditions” (SABILA BIOSCIENCES LLC, priority 2016, dated 2020).
Where two headings read alike, the source gives them in different places.

Tests used:
MEK5 [1] = biological target: T1, MEK5 (Homo sapiens (Human), UniProt Q13163); test: KINOMEscan competition binding assay (Kd)
Experimental: (§1) KINOMEscan™ is based on a competition binding assay that quantitatively measures the ability of a test compound of the invention to compete with an immobilized, active-site directed ligand. The Kinase assay is performed by combining three components: DNA-tagged kinase; immobilized ligand; and a test compound. The ability of the test compound to compete with the immobilized ligand is measured via quantitative PCR of the DNA tag.
(§2) For most assays, kinase-tagged T7 phage strains were prepared in an E. coli host derived from the BL21 strain. E. coli were grown to log-phase and infected with T7 phage and incubated with shaking at 32° C. until lysis. The lysates were centrifuged and filtered to remove cell debris. The remaining kinases were produced in HEK-293 cells and subsequently tagged with DNA for qPCR detection. Streptavidin-coated magnetic beads were treated with biotinylated small molecule ligands for 30 minutes at room temperature to generate affinity resins for kinase assays. The liganded beads were blocked with excess biotin and washed with blocking buffer (SeaBlock (Pierce), 1% BSA, 0.05% Tween 20, 1 mM DTT) to remove unbound ligand and to reduce nonspecific binding. […] All reactions were performed in polystyrene 96-well plates in a final volume of 0.135 ml. […] The kinase concentration in the eluates was measured by qPCR.

mTOR = mTOR (Homo sapiens (Human), UniProt P42345); test: KINOMEscan competition binding assay (Kd); conditions: read-out: Kd Values Against mTOR Kinase: mTOR
Experimental: as §1, §2

FYN isoform (a) = FYN isoform (a) (Homo sapiens (Human), UniProt P06241); test: Kinase binding assay CaPBA; conditions: read-out: IC50 Activity Levels Against FYN isoforms, YES1 and MEK5: FYN isoform (a)
Text: (§3) 4. Kinase Binding Assay CaPBA:

FYN isoform (b) = FYN isoform (b) (Homo sapiens (Human), UniProt P06241); test: Kinase binding assay CaPBA; conditions: read-out: IC50 Activity Levels Against FYN isoforms, YES1 and MEK5: FYN isoform (b)
Text: as §3

MEK1 = MEK1 (Homo sapiens (Human), UniProt Q02750); test: KINOMEscan competition binding assay (Kd); conditions: read-out: Kd Values Against MEK Kinases Isoforms: MEK1
Experimental: as §1, §2

MEK5 [2] = biological target: T1, MEK5; test: Kinase binding assay CaPBA; conditions: read-out: IC50 Activity Levels Against FYN isoforms, YES1 and MEK5: MEK5
Text: as §3

BRAF = BRAF (Homo sapiens (Human), UniProt P15056); test: Radioisotope filter binding assay; type: biochemical; conditions: read-out: IC50 Activity Levels Against MAPK Pathway Kinases: BRAF
Experimental: (§4) 3. Radioisotope Filter Binding Assay:
(§5) In this assay format, it directly detects the true product without the use of modified substrates or coupling enzymes (Uitdehaag, J. C., et al. Br. J. Pharmacol. 2012, 166, 858-876; Hastie, C. J., et al. Nat. Protoc. 2006, 1, 968-971) according to equation 1. Substrate+[γ−^33P]−ATP→^33P-Substrate+ADP eq 1
(§6) The protocol calls for test compound of the invention to be incubated with kinase, substrate, cofactors, and radio-isotope-labeled ATP (^33P-gamma-ATP). The reaction mixtures are then spotted onto filter papers which bind the radioisotope labeled catalytic product. Unreacted phosphate is removed via washing. The reagents used include base reaction buffer; 20 mM Hepes (pH 7.5), 10 mM MgCl2, 1 mM EGTA, 0.02% Brij35, 0.02 mg/ml BSA, 0.1 mM Na3VO4, 2 mM DTT, 1% DMSO. The reaction procedure include the following steps: (1) prepare indicated substrate in freshly prepared base reaction buffer, (2) deliver any required cofactors to the substrate solution above, (3) deliver indicated kinase into the substrate solution and gently mix, (4) deliver compounds in DMSO into the kinase reaction mixture by Acoustic technology (Echo550; nanoliter range), incubate for 20 minutes at room temperature, (5) deliver ^33P-ATP (specific activity 10 μCi/μL) into the reaction mixture to initiate the reaction, (6) incubate kinase reaction for 2 hours at room temperature, (7) reactions are spotted onto P81 ion exchange paper, (8) detect kinase activity by filter-binding method.

HER4 = HER4 (Homo sapiens (Human), UniProt Q15303); test: Radioisotope filter binding assay; type: biochemical; conditions: read-out: IC50 Activity Levels Against RTKs (c-Kit, RET, HER4) and AurA, CHK2 Kinases: HER4
Experimental: as §4, §5, §6

KDR/VEGFR2 = KDR/VEGFR2 (Homo sapiens (Human), UniProt P35968); test: Radioisotope filter binding assay; type: biochemical; conditions: read-out: IC50 Activity Levels Against MAPK Pathway Kinases: KDR/VEGFR2
Experimental: as §4, §5, §6

RET = RET (Homo sapiens (Human), UniProt P07949); test: Radioisotope filter binding assay; type: biochemical; conditions: read-out: IC50 Activity Levels Against RTKs (c-Kit, RET, HER4) and AurA, CHK2 Kinases: RET
Experimental: as §4, §5, §6

c-KIT = c-KIT (Homo sapiens (Human), UniProt P10721); test: Radioisotope filter binding assay; type: biochemical; conditions: read-out: IC50 Activity Levels Against RTKs (c-Kit, RET, HER4) and AurA, CHK2 Kinases: c-KIT
Experimental: as §4, §5, §6

[3] = Table 12, read-out: Kd Values Against MEK Kinases Isoforms: MEK5

T1 sequence (Q13163 whole entry): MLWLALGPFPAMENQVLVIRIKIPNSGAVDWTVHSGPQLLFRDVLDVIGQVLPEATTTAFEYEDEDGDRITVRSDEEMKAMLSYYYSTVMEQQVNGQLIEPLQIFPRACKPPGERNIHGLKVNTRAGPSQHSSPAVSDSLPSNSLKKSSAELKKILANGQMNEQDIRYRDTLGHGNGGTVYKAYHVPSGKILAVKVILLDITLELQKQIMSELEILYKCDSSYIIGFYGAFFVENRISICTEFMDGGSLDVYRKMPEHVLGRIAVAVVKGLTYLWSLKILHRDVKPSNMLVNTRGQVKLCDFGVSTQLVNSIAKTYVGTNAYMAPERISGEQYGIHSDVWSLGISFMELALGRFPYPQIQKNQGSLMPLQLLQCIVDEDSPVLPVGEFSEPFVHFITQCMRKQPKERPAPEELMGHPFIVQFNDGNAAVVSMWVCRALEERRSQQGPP
MEK1, sequence (Q02750 whole entry, canonical isoform): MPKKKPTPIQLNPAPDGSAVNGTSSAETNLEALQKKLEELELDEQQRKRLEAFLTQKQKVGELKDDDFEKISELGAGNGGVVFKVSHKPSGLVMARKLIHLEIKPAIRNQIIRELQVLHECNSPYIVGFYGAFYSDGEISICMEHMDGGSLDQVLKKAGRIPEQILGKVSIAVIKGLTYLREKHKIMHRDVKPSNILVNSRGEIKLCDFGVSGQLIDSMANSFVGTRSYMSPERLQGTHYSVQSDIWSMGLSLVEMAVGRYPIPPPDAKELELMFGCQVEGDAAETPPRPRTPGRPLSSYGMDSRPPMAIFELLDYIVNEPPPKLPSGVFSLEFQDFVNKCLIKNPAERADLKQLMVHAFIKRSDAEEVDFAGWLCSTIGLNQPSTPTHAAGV
KDR/VEGFR2, sequence (P35968 20-1356): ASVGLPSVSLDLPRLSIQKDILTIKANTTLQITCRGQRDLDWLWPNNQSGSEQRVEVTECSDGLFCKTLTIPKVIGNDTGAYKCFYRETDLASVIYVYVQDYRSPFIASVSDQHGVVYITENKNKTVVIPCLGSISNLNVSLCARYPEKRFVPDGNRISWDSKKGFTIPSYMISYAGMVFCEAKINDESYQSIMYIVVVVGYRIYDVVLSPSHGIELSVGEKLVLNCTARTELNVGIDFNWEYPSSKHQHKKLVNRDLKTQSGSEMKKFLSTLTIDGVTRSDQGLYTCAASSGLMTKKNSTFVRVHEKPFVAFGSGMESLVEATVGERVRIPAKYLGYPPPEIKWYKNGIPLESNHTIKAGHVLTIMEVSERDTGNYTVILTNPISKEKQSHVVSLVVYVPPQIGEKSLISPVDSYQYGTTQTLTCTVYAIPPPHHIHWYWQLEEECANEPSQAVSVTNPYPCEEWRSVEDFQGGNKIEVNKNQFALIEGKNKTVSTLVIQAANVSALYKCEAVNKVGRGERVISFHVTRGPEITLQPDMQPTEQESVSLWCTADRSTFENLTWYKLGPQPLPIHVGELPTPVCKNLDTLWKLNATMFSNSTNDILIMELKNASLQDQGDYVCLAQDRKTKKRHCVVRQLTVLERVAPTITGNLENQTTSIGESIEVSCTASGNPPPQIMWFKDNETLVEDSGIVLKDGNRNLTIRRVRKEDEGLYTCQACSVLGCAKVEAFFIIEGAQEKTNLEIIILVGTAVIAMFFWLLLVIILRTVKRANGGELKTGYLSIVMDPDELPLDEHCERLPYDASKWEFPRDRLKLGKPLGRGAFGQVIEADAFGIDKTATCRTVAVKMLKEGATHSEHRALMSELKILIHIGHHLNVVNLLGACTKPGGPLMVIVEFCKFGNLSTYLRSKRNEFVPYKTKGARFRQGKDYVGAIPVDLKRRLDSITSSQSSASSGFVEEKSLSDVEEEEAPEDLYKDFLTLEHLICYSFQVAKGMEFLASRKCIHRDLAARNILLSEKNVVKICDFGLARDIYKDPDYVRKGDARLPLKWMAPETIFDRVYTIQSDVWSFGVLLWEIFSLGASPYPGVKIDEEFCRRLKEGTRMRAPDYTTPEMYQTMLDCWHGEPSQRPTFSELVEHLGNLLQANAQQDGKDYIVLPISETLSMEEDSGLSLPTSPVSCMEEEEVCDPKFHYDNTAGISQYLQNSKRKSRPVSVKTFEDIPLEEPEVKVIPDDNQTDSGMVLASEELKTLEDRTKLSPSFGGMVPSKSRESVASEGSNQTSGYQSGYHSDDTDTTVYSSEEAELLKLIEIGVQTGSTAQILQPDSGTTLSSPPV
RET, sequence (P07949 29-1114): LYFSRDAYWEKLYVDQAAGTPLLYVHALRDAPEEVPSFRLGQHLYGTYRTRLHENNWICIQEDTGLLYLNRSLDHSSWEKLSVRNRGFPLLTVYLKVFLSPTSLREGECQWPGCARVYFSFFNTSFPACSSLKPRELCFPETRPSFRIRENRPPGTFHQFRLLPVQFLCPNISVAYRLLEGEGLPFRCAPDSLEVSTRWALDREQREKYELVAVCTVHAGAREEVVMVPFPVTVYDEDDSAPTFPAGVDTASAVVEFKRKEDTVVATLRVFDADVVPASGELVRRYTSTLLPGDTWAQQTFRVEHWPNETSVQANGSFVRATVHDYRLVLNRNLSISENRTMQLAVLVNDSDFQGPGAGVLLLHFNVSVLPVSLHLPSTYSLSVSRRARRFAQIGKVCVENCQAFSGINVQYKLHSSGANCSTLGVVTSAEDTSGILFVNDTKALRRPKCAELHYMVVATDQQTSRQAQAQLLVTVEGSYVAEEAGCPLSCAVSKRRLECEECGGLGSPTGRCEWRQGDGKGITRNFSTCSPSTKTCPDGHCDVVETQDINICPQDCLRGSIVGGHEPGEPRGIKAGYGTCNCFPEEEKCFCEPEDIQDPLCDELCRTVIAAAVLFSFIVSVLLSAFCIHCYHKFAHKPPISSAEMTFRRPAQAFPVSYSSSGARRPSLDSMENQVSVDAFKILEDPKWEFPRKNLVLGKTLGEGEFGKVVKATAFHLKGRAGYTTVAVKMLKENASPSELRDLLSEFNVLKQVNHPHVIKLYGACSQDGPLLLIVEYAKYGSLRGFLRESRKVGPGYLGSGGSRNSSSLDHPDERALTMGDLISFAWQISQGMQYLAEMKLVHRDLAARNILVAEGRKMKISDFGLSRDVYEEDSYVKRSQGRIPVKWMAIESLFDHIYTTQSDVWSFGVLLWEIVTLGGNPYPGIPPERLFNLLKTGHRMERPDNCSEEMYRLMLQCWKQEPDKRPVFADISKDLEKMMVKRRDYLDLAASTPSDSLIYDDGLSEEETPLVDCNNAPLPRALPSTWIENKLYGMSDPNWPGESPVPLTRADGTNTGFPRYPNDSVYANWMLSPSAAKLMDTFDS
BRAF, sequence (P15056 whole entry): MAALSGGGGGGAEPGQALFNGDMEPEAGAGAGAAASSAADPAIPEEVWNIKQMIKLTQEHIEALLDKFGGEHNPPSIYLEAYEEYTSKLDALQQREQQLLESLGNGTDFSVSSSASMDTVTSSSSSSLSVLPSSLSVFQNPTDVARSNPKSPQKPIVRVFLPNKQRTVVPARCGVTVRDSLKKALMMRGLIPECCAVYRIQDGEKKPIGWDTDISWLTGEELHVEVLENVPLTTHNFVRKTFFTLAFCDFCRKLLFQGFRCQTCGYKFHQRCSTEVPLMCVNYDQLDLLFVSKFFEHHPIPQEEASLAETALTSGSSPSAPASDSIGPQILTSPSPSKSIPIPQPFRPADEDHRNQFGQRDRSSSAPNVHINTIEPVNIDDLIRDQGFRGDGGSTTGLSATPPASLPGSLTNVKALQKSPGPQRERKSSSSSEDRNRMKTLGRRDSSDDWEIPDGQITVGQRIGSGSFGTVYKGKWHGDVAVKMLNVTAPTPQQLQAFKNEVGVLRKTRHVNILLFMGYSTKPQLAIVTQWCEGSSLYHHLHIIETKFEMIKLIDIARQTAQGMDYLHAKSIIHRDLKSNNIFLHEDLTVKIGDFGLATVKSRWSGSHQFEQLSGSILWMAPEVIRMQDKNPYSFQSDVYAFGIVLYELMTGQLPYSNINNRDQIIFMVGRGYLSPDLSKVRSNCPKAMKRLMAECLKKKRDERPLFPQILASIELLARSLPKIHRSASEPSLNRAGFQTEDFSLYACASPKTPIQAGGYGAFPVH
c-KIT, sequence (P10721 26-976): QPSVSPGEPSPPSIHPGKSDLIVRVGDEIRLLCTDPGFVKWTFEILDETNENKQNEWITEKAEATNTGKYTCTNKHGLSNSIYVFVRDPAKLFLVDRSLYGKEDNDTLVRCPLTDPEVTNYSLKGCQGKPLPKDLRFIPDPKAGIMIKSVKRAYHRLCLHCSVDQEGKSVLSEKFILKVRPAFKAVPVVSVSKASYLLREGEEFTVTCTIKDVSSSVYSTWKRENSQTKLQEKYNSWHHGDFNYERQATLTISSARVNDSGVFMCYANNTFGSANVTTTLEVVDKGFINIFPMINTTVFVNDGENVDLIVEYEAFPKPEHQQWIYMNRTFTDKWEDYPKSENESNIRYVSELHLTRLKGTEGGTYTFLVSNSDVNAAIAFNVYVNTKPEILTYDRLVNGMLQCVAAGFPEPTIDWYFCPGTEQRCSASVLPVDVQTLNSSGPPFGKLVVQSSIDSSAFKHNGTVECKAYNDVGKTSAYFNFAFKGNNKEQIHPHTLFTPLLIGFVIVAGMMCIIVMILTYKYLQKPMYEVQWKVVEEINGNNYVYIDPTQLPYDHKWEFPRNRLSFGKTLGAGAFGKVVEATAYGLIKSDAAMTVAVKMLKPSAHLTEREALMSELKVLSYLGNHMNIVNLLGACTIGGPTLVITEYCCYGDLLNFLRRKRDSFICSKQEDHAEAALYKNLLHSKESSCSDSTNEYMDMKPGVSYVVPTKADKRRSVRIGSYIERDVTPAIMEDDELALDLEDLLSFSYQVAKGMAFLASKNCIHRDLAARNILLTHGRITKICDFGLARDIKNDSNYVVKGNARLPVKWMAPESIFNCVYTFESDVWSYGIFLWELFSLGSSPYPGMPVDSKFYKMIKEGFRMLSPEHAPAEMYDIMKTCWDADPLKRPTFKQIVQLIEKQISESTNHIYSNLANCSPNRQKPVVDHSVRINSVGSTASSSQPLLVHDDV

Kd (MEK5 [1]; Table 9, read-out: Kd Values Against Representative MEK5 Kinase: MEK5) | Kd (mTOR) | IC50 (FYN isoform (a)) | IC50 (FYN isoform (b)) | Kd (MEK1) | Kd (MEK5 [1]; [3]) | IC50 (MEK5 [2]) | IC50 (BRAF) | IC50 (HER4) | IC50 (KDR/VEGFR2) | IC50 (RET) | IC50 (c-KIT) | Structure (SMILES)
< 5 nM | 1000 to 10000 nM | 5 to 99 nM | 5 to 99 nM | – | – | – | – | – | – | – | – | Nc1ncnc2c1c(-c1ccc(Oc3ccccc3)cc1)nn2C[C@@H]1SSC[C@H]1O [43 A.]
– | 100 to 999 nM | 5 to 99 nM | 5 to 99 nM | 5 to 99 nM | < 5 nM | 1000 to 10000 nM | – | – | – | – | – | Nc1ncnc2c1c(-c1ccc(Oc3ccccc3)cc1)nn2C[C@H]1SSC[C@@H]1O [43 B.]
– | 100 to 999 nM | – | – | 100 to 999 nM | < 5 nM | – | 1000 to 10000 nM | 1000 to 10000 nM | 1000 to 10000 nM | 100 to 999 nM | 1000 to 10000 nM | Nc1ncnc2c1c(-c1ccc(Oc3ccccc3)cc1)nn2C[C@@H]1SSC[C@@H]1O [46 A.]
– | 100 to 999 nM | – | – | 5 to 99 nM | < 5 nM | 1000 to 10000 nM | 1000 to 10000 nM | 5 to 99 nM | 1000 to 10000 nM | 1000 to 10000 nM | 1000 to 10000 nM | Nc1ncnc2c1c(-c1ccc(Oc3ccccc3)cc1)nn2C[C@H]1SSC[C@H]1O [46 B.]
